Data set [1] relates to CT26-FL3 cells. Kind of data set: HMGB1 release by immunofluorescence (ICD). In kind it is cell-based, murine. Here is the method:
(§1) CT26-FL3 cells were seeded in 35-mm cell culture dishes with glass bottom at the density of 2×10^5 per dish and incubated for 24 h before treatment. The cell culture medium was removed and replenished with different combination of Q and A containing media at the indicated concentrations for 4 h for CRT detection and for 8 h for HMGB1 detection. Cells were fixed and washed 3 times. A primary antibody, anti-CRT antibody (ab2907, 1:500, Abcam), diluted in cold blocking buffer (10% goat serum in PBS), was added for 60 min. After three washes in cold PBS, cells were then incubated for 60 min with the Alexa Fluor® 488 Goat Anti-Rabbit (IgG) (ab150077, 1:500, Abcam) diluted in a cold blocking buffer. Cells were fixed with 4% PFA for 20 min, and DAPI Mounting Medium was added for nuclear staining. For intracellular HMGB1 staining, cells were fixed and washed 3 times. Afterwards, cells were permeabilized with 0.1% Triton X-100 containing blocking buffer for 10 min, and rinsed three times with PBS, and nonspecific binding sites were blocked for 30 min A primary antibody for HMGB1 (ab79823, 1:500, Abcam) was added for 60 min. Cells were then incubated for 60 min with the Alexa Fluor® 488 Goat Anti-Rabbit (IgG) (ab150077, 1:500, Abcam) diluted in a cold blocking buffer. Cells were fixed with 4% PFA for 20 min, and DAPI Mounting Medium was added for nuclear staining. […]

Data set [2] has as its system CT26-FL3 cells. Kind of data set: MTT cytotoxicity and combination index (Chou and Talalay). It is filed as cell-based, murine. The settings on record: Mus musculus, 24 h incubation, read-out: IC50 of Q alone. Here is the method:
The cytotoxicity of free Q, free A and drugs combination against CT26-FL3 cells were assessed using the MTT (3-[4,5-dimethylthiazol-2-yl]-2,5-diphenyltetrazolium bromide) method. Zhang et al., 2017. Cells were seeded in 96-well plates (5×10^3 cells per well) and incubated for 24 h before treatment. Then the culture medium was withdrawn and fresh medium containing free drugs and drug combination with a series of concentration were added to each well. Following 24-h incubation, cell viability was determined by MTT assay. The synergy of Q and A was evaluated by using the Chou and Talalay method to calculate the combination index (CI). Zhang et al., 2014; Chou et al., 1984. CI was calculated by using the following equation (1): CI=(D)1/(Dx)1+(D)2/(Dx)2 (1) […]

The nature of data set [3]: Maximum concentration of free drug in lecithin suspension (sink condition). The conditions noted are these: lecithin suspension 100 mg/mL. In kind it is physicochemical. Here is the method:
The release behaviors of Q and A from QA-M were investigated by a dialysis method. The QA-M (2 mL) was placed into a preswelled dialysis bag (cutting Mw 8000), which was then immersed into empty lecithin suspension (PC-98T, 100 mg/mL, 100 mL) at 37° C. for 72 hours under stirring at a speed of 100 rpm. The lecithin suspension was formed by film-hydration method followed by sonication and the size of this lecithin suspension was around 100 nm. Sink condition was confirmed by determination of the maximum concentration for free Q and A in the lecithin suspension, which was 0.5 mg/mL and 0.8 mg/mL, respectively. At different time points, 1.0 mL of sample was withdrawn from the release medium, mixed with methanol and measured for the Q and A using the HPLC method mentioned above. The release medium was replenished with an equal volume of fresh medium at 37° C. Sink condition was maintained throughout the experiment. All measurements were performed in triplicate, and the mean values and standard deviations are calculated.

Data set [4] deals with CT26-FL3 cells. Kind of data set: CRT translocation by immunofluorescence (ICD). In kind it is cell-based, murine. The conditions noted are these: free Q alone 0.07 μM, 4 h. As for the experimental part: as §1
The test system of data set [5] is orthotopic CT26-FL3 tumors. Kind of data set: Orthotopic colon tumor growth inhibition and survival. It is filed as in vivo, Balb/c mice. The conditions noted are these: i.v. four times every other day, Q 3 mg/kg, A 9 mg/kg. As for the experimental part:
An orthotopic CT26-FL3 colorectal tumor model was established in female Balb/c mice as reported previously. Song et al., 2018. Twenty-eight tumor-bearing mice were divided into seven random groups: PBS, free Q (Q-F), free A (A-F), combination of free Q and A (QA-F), Q-M, A-M and QA-M. Formulations were intravenously injected to mice once every 2 days by total four injections (i.v.) with a Q dose of 3 mg/kg and A dose of 9 mg/kg. Mice in PBS groups were injected with PBS as control. The tumor burden was detected by intraperitoneal (i.p.) injection of 100 μL of D-luciferin (Pierce™, 20 mg/mL) followed by bioluminescent analysis using an IVIS® Kinetics Optical System (Perkin Elmer, Calif.). The tumor growth and body weight of mice were recorded every 2 days. The increment of tumor volume was calculated as luminescence intensities and normalized to the original value on the first day of measurement (Vt/V0). Body weight of mice in each group was documented. Nine days after the last injection, mice were sacrificed and the tumor, heart, liver, spleen, lung and kidney tissues were removed and used for the present study. Blood samples were collected from the orbital plexus into heparinized tubes and then centrifuged at 5,000 rpm for five minutes to separate the plasma. One portion of tumor, spleen and lymph nodes were collected for flow cytometric analysis. […]

We go through two compounds from patent publication US20220211663A1, “NANO CO-DELIVERY OF QUERCETIN AND ALANTOLACTONE PROMOTES ANTI-TUMOR RESPONSE THROUGH SYNERGISTIC IMMUNOGENIC CELL DEATH FOR MICROSATELLITE-STABLE COLORECTAL CANCER” (The University of North Carolina at Chapel Hill, priority 2019, published 2022).

Structures are written as SMILES.

What is called IC50 is the point on the concentration scale where inhibition reaches its midpoint.

For `O=c1c(O)c(-c2ccc(O)c(O)c2)oc2cc(O)cc(O)c12` [Q, quercetin], the HMGB1 release entry in the data set on CT26-FL3 cells [1] (free Q alone 0.33 μM, 8 h) is on record as “minimum or undetectable effect”. Moreover, the “release of HMGB1 compared to control group” value in the data set with CT26-FL3 cells [1] (single drug: Q 0.33 μM, A 1.3 μM) is listed as “undetectable release”. Also, the IC50 in the data set with CT26-FL3 cells [2] amounted to 148 µM. For the same compound, in data set [3], the “maximum concentration in the lecithin suspension” value came to 0.5 mg/mL. Besides, the CRT translocation entry in the data set with CT26-FL3 cells [4] is given as “minimum or undetectable effect”.
Regarding `O=c1c(O)c(-c2ccc(O)c(O)c2)oc2cc(O)cc(O)c12` [Q-F, quercetin], the tumor growth entry in data set [5] is listed as “very similar to that of QA-F”.
